Each block holds one molecule with its values, some of them ahead of it.
Key:
red blood cells = details: rabbit, in vivo
Experimental: I. Two rabbits were injected with a solution of N-succinimidyl biotin ester (NHS-biotin)(5 or 50 mg in 200 μl or 1 ml of DMSO) i.v. on day 0.

plasma proteins = details: rabbit, in vivo
anti-avidin titer = experiment: Anti-avidin antibody titer by ELISA after i.v. avidin; assay type: in vivo, rabbit
Source text: II. […] Within about 2 days the titer began to rise rapidly and by 10 days a high anti-avidin titer was observed by ELISA, using avidin coated to microiplates, as evidenced by an OD value of about 600.

[1] = blood component in blood; cited from earlier work

biotinylated red blood cell protein bands at 33 days (red blood cells): no bands could be observed | duration for which biotinylated red blood cell proteins could be observed (red blood cells): 12 days | duration for which IgG bands could be observed (plasma proteins): 9 days | duration of detection of biotin bound to IgM and IgG (plasma proteins): up to 33 days
Molecule: O=C1N[C@H]2[C@H](CS[C@H]2CCCCC(=O)ON2C(=O)CCC2=O)N1 [NHS-biotin, N-succinimidyl biotin ester]

Molecule: avidin: egg white avidin, heterologous protein and reciprocal binding member of biotin
time at which anti-avidin titer began to rise rapidly (anti-avidin titer; 250 μg or 1 mg egg white avidin i.v. after biotin conjugate administration): ≤ 2 days | anti-avidin titer, OD value (ELISA) (anti-avidin titer; by 10 days, 250 μg or 1 mg egg white avidin i.v. after biotin conjugate administration): about 600 | anti-avidin antibody production (anti-avidin titer; rabbits not previously given biotin conjugate, before i.v. booster of 50 μg avidin on day 6): substantially no production of antibodies

Molecule: transferrin: blood protein, mobile blood component
Half-life [1]: 240 h

Reference: patent US20020009441A1, “Reactively modified therapeutic compounds having an extended lifetime in vivo” (priority 1993, published 2002)
